According to US12570988B2, “Aptamers that bind thiamine analogs and derivatives” (MeiraGTx Gene Regulation Limited, priority 2020, dated 2026):

What was measured:
[1] = test system: riboswitch 15D10; assay: Luciferase reporter with 15D10 riboswitch (Luci-15D10) in HEK 293 cells; assay type: cell-based, human; conditions: for effect on luciferase expression from Luci-15D10: HEK 293 cells, FIG. 9A, 9C
Method in brief: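 Cells transfected with riboswitch-luciferase plasmid; 4 h later medium replaced with TPP or thiamine analogs (fursultiamine, prosultiamine, bisbentiamine, beclotiamine, sulbutiamine) as inducers.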

[2] = test system: 14G4 riboswitch; conditions: HEK 293 cells; dose dependent; FIG. 2
Excerpt: Riboswitch construction: TPP aptamer homologous sequences were obtained from Rfam 12.0 (https://rfam.xfam.org/) and synthesized (Twister Biotech).
To identify aptamers with increased gene regulation activity in response to thiamine analogs as compared to TPPz and TPPm, a putative TPP aptamer with homologous sequence was obtained from Rfam 12.0 (RNA family database RF00059, http://rfam.xfam.org/family/RF00059).

[3] = test system: riboswitch comprising aptamer 6B4
Excerpt: (§1) Riboswitch constructs: Alternative splicing riboswitches containing aptamers 3H4 or 15D10, respectively, were inserted at position 308 into the mouse erythropoietin cDNA sequence in construct Con8-Epo (SEQ ID NO:85), resulting in constructs Epo-3H4 (SEQ ID NO:86) and Epo-15D10 (SEQ ID NO:87). Expression of the erythropoietin gene was driven by a cytomegalovirus (CMV) promoter. The riboswitch cassette containing aptamer 6B4 was inserted at position 276 into the cDNA sequence encoding enhanced green fluorescent protein (EGFP) in vector pEGFP-C1 to generate the EGFP-6B4 construct (SEQ ID NO:88). The intron-exon-intron cassette without aptamer sequence was inserted into Con8-Epo to create construct Epo-Con1 (SEQ ID NO:89), serving as a control for constitutive target gene expression.

[4] = test system: riboswitch comprising aptamer 3H4; conditions: 12.5 μM; AML12 cells; versus absence of fursultiamine
Excerpt: as §1
(§2) Enzyme-linked immunosorbent assay (ELISA) for mouse erythropoietin: AML12 cells were transfected as described in Example 1 with TransIT-X2 transfection reagent (Mirus Bio). Four hours after transfection, AML12 cells were treated with or without fursultiamine at the indicated doses. The supernatants from the transfected cells were collected 24 hours after fursultiamine treatment and were subjected to ELISA for the detection of mEpo in the supernatant following the manufacturer's instruction (R&D).

[5] = test system: riboswitch comprising aptamer 15D10; conditions: 12.5 μM, AML12 cells
Excerpt: as §1, §2

[6] = test system: riboswitch 15D10; assay: Luciferase reporter with 15D10 riboswitch (Luci-15D10) in AML12 cells; assay type: cell-based, mouse; conditions: for luciferase regulation in response to ligand, riboswitch 15D10: AML12 cells, FIG. 6B
[7] = test system: riboswitch comprising aptamer 15A5; assay: Luciferase reporter with 15A5 riboswitch in AML12 cells; assay type: cell-based, mouse; conditions: FIG. 6B
[8] = test system: riboswitch TPPm (E. coli thiM TPP aptamer); assay: Luciferase reporter with TPPm riboswitch in HEK 293 cells; assay type: cell-based, human; conditions: FIG. 1
Excerpt: (§3) Riboswitch constructs: Aptamers were synthesized by Integrated DNA Technologies, Inc. and Golden Gate cloning strategy (New England Biolabs, NEB) was used to clone the synthesized aptamer sequences into intron-exon-intron cassette to replace the guanine aptamer in the G17 riboswitch cassette (see SEQ ID NO: 15 recited in WO 2016/126747, which is incorporated herein in its entirety) with a TPP aptamer from the Alishewanella tabrizica thiC gene (Microbiol Res. 2017 January; 195:71-80) or a TPP aptamer from the Escherichia coli thiM gene (Structure. 2006 September; 14(9):1459-68), generating riboswitch TPPz and TPPm, respectively.
(§4) Transfection: 3.5×10^4 human embryonic kidney (HEK) 293 cells were plated in a 96-well flat bottom plate the day before transfection. Plasmid DNA (500 ng) was added to a tube or a 96-well U-bottom plate. Separately, TransIT-293 reagent (Mirus; 1.4 μL) was added to 50 μL Optimem I media (Life Technologies) and allowed to sit for 5 minutes at room temperature (RT). Then, 50 μL of this diluted transfection reagent was added to the DNA, mixed, and incubated at RT for 20 min. Finally, 7 μL of this solution was added to a well of cells in the 96-well plate. Four hours after transfection, medium containing transfection solution was replaced by medium containing either TPP, fursultiamine, prosultiamine, bisbentiamine, beclotiamine hydrochloride, or sulbutiamine as aptamer inducers.
(§5) Firefly luciferase assay of cultured cells: Twenty-four hours after media change, plates were removed from the incubator, and equilibrated to RT for several minutes on a lab bench, then aspirated. Glo-lysis buffer (Promega, 100 μL, RT) was added, and the plates allowed to remain at RT for at least 5 minutes. Then, the well contents were mixed by 50 μL trituration, and 20 μL of each sample was mixed with 20 μL of bright-glo reagent (Promega) that had been diluted to 10% in glo-lysis buffer. 96 wells were spaced on an opaque white 384-well plate. Following a 5 min incubation at RT, luminescence was measured using a Tecan machine with 500 ms read time. The luciferase activity was expressed as mean arbitrary light units (ALU)±S.D., and fold induction was calculated as the quotient of the luciferase activity obtained from cells with TPP or analog treatment divided by the luciferase activity obtained from cells without TPP or analog treatment.

[9] = test system: riboswitch TPPz (A. tabrizica thiC TPP aptamer); assay: Luciferase reporter with TPPz riboswitch in HEK 293 cells; assay type: cell-based, human; conditions: FIG. 1
Excerpt: as §3, §4, §5

[10] = test system: riboswitch 15D10; assay: Luci-15D10 luciferase reporter in ARPE-19 cells; assay type: cell-based, human; conditions: FIG. 9E
[11] = test system: riboswitch 15D10; assay: Luci-15D10 luciferase reporter in Hep G2 cells; assay type: cell-based, human; conditions: potency compared at 12.5 μM, FIG. 9F
[12] = test system: riboswitch 3H4; assay: In vivo bioluminescence imaging, mice given AAV luci-3H4; set-up: species or system Balb/c mice
Excerpt: (§6) AAV2.8 viral particle production: The AAV2.8 particles used for the transfection of mice comprised a viral genome derived from AAV2 and a capsid derived from AAV8. The luciferase gene containing an intron-exon-intron cassette with (1) a non-regulatable riboswitch without aptamer (“luci-Con1”, SEQ ID NO:90), (2) a riboswitch cassette comprising aptamer 3H4 (“luci-3H4”, SEQ ID NO:91), or (3) a riboswitch cassette comprising aptamer 6B4 (“luci-6B4”, SEQ ID NO:92), respectively, was cloned into an AAV2 plasmid vector. Expression of the luciferase gene was controlled by a CASI promoter, which includes CMV and ubiquitin C enhancer elements and the chicken β-actin promoter. The viral vector was packaged into AAV8 capsid and produced following manufacture's protocol (Vigene Biosciences).
(§7) Animal study: Male Balb/c mice received a single tail vein injection of 1.0×10^11 or 2.5×10^11 genome copies of the receptive AAV2.8 viral particle. Twenty-eight days after AAV vector delivery, mice were treated intraperitoneally (IP.) with 50 mg/kg prosultiamine. Luciferase activity was measured the day prior to drug dosing, as well as 6 h, 24 h, 48 h and 72 h after drug dosing. After the first administration of prosultiamine, the mice were subjected to three additional rounds of dosing and imaging cycles as follows: Day 36 (after AAV administration):100 mg/kg; day 43: 200 mg/kg; and day 51: 400 mg/kg.
(§8) Noninvasive live animal bioluminescence imaging: Before imaging, mice were anesthetized with 2% isoflurane, and injected with 150 mg/kg body weight of luciferin. At the indicated time point post drug dosing, images were taken within 2 to 5 minutes after luciferin injection using a Bruker Xtreme system. Luciferase activity was expressed as mean photon/s±S.D. (n=5). The fold induction of luciferase gene expression was calculated as the quotient of photon/s obtained from mice treated with prosultiamine divided by the value obtained from mice the day before prosultiamine treatment.

[13] = test system: riboswitch 6B4; assay: In vivo bioluminescence imaging, mice given AAV luci-6B4; set-up: species or system Balb/c mice
Excerpt: as §6, §7, §8

[14] = 50 mg/kg IP single dose, six hours after dosing
[15] = 50 mg/kg and 100 mg/kg IP doses
[16] = 200 mg/kg and 400 mg/kg IP doses

Structure (SMILES): CC(=C(CCO)SSCC1CCCO1)N(C=O)Cc1cnc(C)nc1N (stereo in doubt) [fursultiamine]
- fold induction at 50 µM ([1]; Homo sapiens, HEK293, 24 h, read-out: Fold increase in riboswitch 15D10-regulated luciferase expression, HEK): 446
- increase in luciferase expression, 14G4 riboswitch [2]: 100 fold
- increase in EGFP expression [3]: 14 fold
- induction of mEpo expression, Epo-3H4 [4]: ~9 fold
- level of mEpo from mEpo-15D10 relative to constitutive mEpo-Con1 construct [5]: approximately 61.3%
- induction of mEpo expression, Epo-15D10 ([5]; versus absence of fursultiamine): about 40 fold
- luciferase regulation in response to ligand, riboswitch 15D10 [6]: robustly regulate luciferase expression
- fold induction at 50 µM ([6]; Mus musculus, AML12, 24 h, read-out: Fold increase in riboswitch 15D10-regulated luciferase expression, AML): 315
- luciferase regulation in response to ligand, riboswitch 15A5 [7]: robustly regulate luciferase expression
- effect on luciferase expression, riboswitch TPPm [8]: induce luciferase expression
- effect on luciferase expression, riboswitch TPPz [9]: induce luciferase expression

Structure (SMILES): COc1ccc(C(=O)S/C(CCOP(=O)(O)O)=C(/C)N(C=O)Cc2cnc(C)nc2N)cc1 [Compound M32, (Z)—S-(2-(N-((4-Amino-2-methylpyrimidin-5-yl)methyl)formamido)-5-(phosphonooxy)pent-2-en-3-yl) 4-methoxybenzothioate]
- effect on luciferase expression from Luci-15D10 [1]: no effect on luciferase expression
- activity in increasing riboswitch 15D10-regulated luciferase expression [10]: no activity
- activity in increasing riboswitch 15D10-regulated luciferase expression [11]: no activity

Structure (SMILES): C/C(=C(\CCOP(=O)(O)O)SC(=O)c1ccccc1)N(C=O)Cc1cnc(C)nc1N [benfotiamine, reference compound]
- effect on luciferase expression from Luci-15D10 [1]: no effect on luciferase expression
- luciferase regulation in response to ligand, riboswitch 15D10 [6]: robustly regulate luciferase expression
- activity in increasing riboswitch 15D10-regulated luciferase expression [10]: no activity
- luciferase regulation in response to ligand, riboswitch 15A5 [7]: robustly regulate luciferase expression
- activity in increasing riboswitch 15D10-regulated luciferase expression [11]: no activity

Structure (SMILES): CCCSS/C(CCO)=C(/C)N(C=O)Cc1cnc(C)nc1N [prosultiamine]
- luciferase activity in mice, riboswitch 3H4 [12, 14]: significantly increased
- time at which induced luciferase activity attenuated to pre-treatment level [12, 15]: 24 h
- time induced luciferase activity remained [12, 16]: ≥ 48 h
- luciferase regulation in response to ligand, riboswitch 15D10 [6]: robustly regulate luciferase expression
- luciferase activity in mice, riboswitch 6B4 [13, 14]: significantly increased
- time at which induced luciferase activity attenuated to pre-treatment level [13, 15]: 24 h
- time induced luciferase activity remained [13, 16]: ≥ 48 h
- luciferase regulation in response to ligand, riboswitch 15A5 [7]: robustly regulate luciferase expression
- effect on luciferase expression, riboswitch TPPm [8]: induce luciferase expression
- effect on luciferase expression, riboswitch TPPz [9]: induce luciferase expression
